Measured values taken from a melting point compilation (Tetko et al.; mined from patent text by program, amines drawn as free bases though some values may be those of a salt).

| Compound | melting point [°C] |
| --- | --- |
| CCC(C)CC(C)NC1=NS(=O)(=O)c2cc(Cl)ccc2N1 (centres undefined) | > 220 |
| Nc1cccc2c1S(=O)(=O)CC2 | 117 to 119 |
| CCCn1cc2c(C3C(=O)Nc4ccc(Br)cc43)nc(NCCc3cccnc3)nc2n1 (centres undefined) | 294 to 297 |
| CN(CC(=O)NO)S(=O)(=O)Cc1cccc(C(F)(F)F)c1 | 128 to 129 |
| COc1ccc2c(c1)CN(CCc1ccc(NC(=O)c3cccc4c(=O)c5cccc(OC)c5[nH]c34)cc1)CC2 | 213 to 216 |
| Cc1cc(-c2nc3cccnn3c2-c2ccnc(NC(=O)c3ccccc3C)c2)ccc1F | 265 to 266 |
| Cc1nc(N)c2nc(CO)n(NC3CCOCC3)c2c1C | > 250 |
| Cn1cnc(S(=O)(=O)Nc2cc(C(c3cc(F)ccc3F)S(=O)(=O)c3ccc(Cl)cc3)c(Cl)cn2)c1 (centres undefined) | 294 to 296 |
| CC(=NO)c1ccccc1N | 55 to 60 |
| CCc1cc2nccc(-c3cccnc3)n2n1 | 103 to 104 |
| Oc1cccc(CCCc2cc(C(c3ccccc3)c3ccccc3)on2)c1 | 114 to 117 |
| CCCn1nc(C(C)C)c(C(=O)O)c1Cc1ccc(-c2ccccc2S(=O)(=O)NC(=O)OCC(C)C)c(F)c1 | 77 to 82 |
| Cc1cc(Oc2ncc(C(F)(F)F)cc2Cl)nn1C(N)=O | 101 to 104 |
| ClCc1ccc(OCc2cn3c(Cl)cccc3n2)cc1 | 114 to 115 |
| Cc1cccc2nc3c(c(C)nn3-c3ccccn3)c(Cl)c12 | 167 to 169 |
| COC1=NS(=O)N=C1OC | 137 to 139 |
| COc1ccccc1-c1cc(C2CCN(Cc3ccc(Cl)cc3)CC2)n[nH]1 | 102 to 103 |
| CC(=O)OCc1nnc2n1-c1sc(Cl)cc1C(c1ccccc1Cl)=NC2 | 191 to 193 |
| N#CCC(=O)Nc1ccc(-c2nncn2-c2ccc(F)cc2)cc1 | 223 to 225 |
| CS(=O)(=O)O[C@@H](CO)[C@H](Cc1ccccc1)NC(=O)OCc1ccccc1 | 121 to 122 |
| CC(C)c1nc2cc(NC(=O)OC(C)(C)C)ccn2n1 | 215 to 218 |
| COc1ccc(CCCCC(=O)O)cc1NC(=O)C[C@H]1O[C@H](c2cccc(OC)c2OC)c2cc(Cl)ccc2N(CC(C)(C)CO)C1=O | 136 to 138 |
| Cc1ccc(N(Cc2cccnc2)S(C)(=O)=O)cc1 | 143 to 146 |
| CCN(CC)C(=O)COc1ccc(S(=O)(=O)c2ccc(O)cc2)cc1 | 223 to 226 |
| COc1ccc2c(CC3=C(CC(=O)O)CCCC3=O)cccc2c1C(F)(F)F | 69 to 71 |
| O=C1C(=O)c2ccccc2C2=C1SCC1(CCN(CC3CC3)CC1)O2 | 161 to 164 |

Next, values leading:

| melting point [°C] | Compound |
| --- | --- |
| 245 to 248 | O=C(O)c1ccc(-c2coc3ccc(-c4ccccc4)cc23)cc1 |
| 127 to 128 | COC(=O)C(Cc1ccc(OC)c(C(=O)NCc2ccc(C(F)(F)F)cc2)c1)SC (centres undefined) |
| 233 to 235 | Cn1c2c(c3cccc(F)c31)C(=O)NCCC2 |
| 102 to 106 | COC(=O)c1cnc(C(=O)OC)c(SCc2cccc(C(F)(F)F)c2)c1 |
| 138 to 140 | O=c1ccccn1[C@@H]1C[C@H](O)[C@@H](O)[C@H]1O (racemic) |
| 210 to 215 | NC1=C([C@H]2CC[C@H](c3ccc(Cl)cc3)CC2)C(=O)c2ccccc2C1=O |
| 185 to 186 | Nc1c2c(nc3ccccc13)C1CCC2C1 (centres undefined) |
| 151 | O=C(CN1CCN(C(c2ccccc2)c2ccccc2)CC1)c1ccc(OCc2ccccc2)cc1 |
| 132 | CC(O)C(CCCc1ccccc1)n1cnc(C(N)=O)c1N (centres undefined) |
| 245 to 246 | CCOc1ccc2nc(COc3ccc(CC4SC(=O)NC4=O)cc3)n(C)c2n1 (centres undefined) |
| 103 to 105 | C=CCc1c(OCc2ccc3ccccc3n2)ccc2c1c(SC(C)(C)C)c(CC(C)(C)C(=O)O)n2Cc1ccc(Cl)cc1 |
| 153 to 154 | CCCn1c(=O)n(-c2ccc3c(c2)OCO3)c2ncc(F)cc21 |
| 81 to 82 | CCN(c1nc(C)cc(C(=O)N2CCN(C)CC2)n1)c1ccc(C(C)C)cc1Br |
